This is an account of results in patent US20210322393A1, “METHODS OF TREATING COGNITIVE IMPAIRMENT ASSOCIATED WITH NEURODEGENERATIVE DISEASE” (Aptinyx Inc., priority 2019, published 2021).

Common to all, as to format: in vivo
Data set [1] concerns rodent cognitive models (Morris water maze). Put plainly: Morris water maze rodent cognitive model.
The subject of data set [2] is rodent cognitive models (novel object recognition). The data set is described as follows: Novel object recognition rodent cognitive model.
For data set [3], the system named is MPTP non-human primate model of Parkinson's disease cognitive impairment. The data set is described as follows: Chronic low dose MPTP non-human primate model of Parkinson's disease cognitive impairment.
The nature of data set [4]: Pharmacokinetic profile in dog.
The next data set is described as follows: Tolerability in rat.
A further data set in a line: Tolerability in dog.
Data set [5] can be described thus: Pharmacokinetic profile in rat.

The structures appear in SMILES notation.

As for `COc1ccc(CN2C[C@@]3(CCNC(=O)C3)C2=O)cc1` [The Compound, (S) 2-(4-methoxybenzyl)-2,7-diazaspiro[3.5]nonane-1,6-dione], the “efficacy in Morris water maze” value in data set [1] is reported as “robust efficacy”. Besides, the “efficacy in novel object recognition” value in data set [2] is “robust efficacy”. Also, the “onset, size and duration of effect” value in data set [3] (MPTP non-human primate study) is “rapid, robust, and long lasting effect”. Moreover, the “effect on MPTP-induced cognitive deficits (attention, working memory, executive function)” value in data set [3] (primate versions of Cambridge Neuropsychological Test Automated Battery assessments) is reported as “reversed MPTP-induced deficits in several cognitive domains”. For the same molecule, the pharmacokinetic profile entry in data set [4] and in data set [5] was “favorable pharmacokinetic profile” each time. The tolerability result in “Tolerability in rat” and in the data set “Tolerability in dog” was “well tolerated” throughout.
